Assay results as given in PubChem BioAssay (NCI).
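Test compounds were applied to cells in 96-well plates for 48 hours at 5 doses. GI50 = concentration required for 50% inhibition of growth. TGI: total growth inhibition.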

Legend:
Assay in all cases: growth of human tumour cells (NCI), 48 h
[1] = test system: HL-60(TB) leukemia
[2] = test system: MCF7 breast
[3] = test system: MALME-3M melanoma
[4] = test system: HCC-2998 colon
[5] = test system: PC-3 prostate
[6] = test system: OVCAR-8 ovarian
[7] = test system: SK-MEL-28 melanoma
[8] = test system: CCRF-CEM leukemia
[9] = test system: SNB-75 CNS
[10] = test system: SK-MEL-2 melanoma
[11] = test system: MDA-MB-435
[12] = test system: UO-31 renal
[13] = test system: MOLT-4 leukemia
[14] = test system: COLO 205 colon
[15] = test system: HCT-116 colon
[16] = test system: DU-145 prostate
[17] = test system: K-562 leukemia
[18] = test system: 786-0 renal
[19] = test system: HOP-62 NSCLC
[20] = test system: SF-268 CNS
[21] = test system: SN12C renal
[22] = test system: BT-549 breast
[23] = test system: TK-10 renal
[24] = test system: CAKI-1 renal
[25] = test system: UACC-62 melanoma
[26] = test system: A549 NSCLC
[27] = test system: OVCAR-4 ovarian
[28] = test system: U251 CNS
[29] = test system: SR leukemia
[30] = test system: NCI-H226 lung
[31] = test system: SW-620 colon
[32] = test system: M14 melanoma
[33] = test system: RPMI-8226 leukemia
[34] = test system: NCI-H460 lung
[35] = test system: SF-539 CNS
[36] = test system: OVCAR-3 ovarian
[37] = test system: OVCAR-5 ovarian
[38] = test system: KM12 colon
[39] = test system: NCI/ADR-RES ovarian
[40] = test system: SK-OV-3 ovarian
[41] = test system: SK-MEL-5 melanoma
[42] = test system: UACC-257 melanoma
[43] = test system: SF-295 CNS
[44] = test system: NCI-H522 lung
[45] = test system: HS 578T breast
[46] = test system: SNB-19 CNS
[47] = test system: ACHN renal
[48] = test system: MDA-MB-231 breast
[49] = test system: HOP-92 NSCLC
[50] = test system: HT29 colon
[51] = test system: NCI-H23 lung
[52] = test system: RXF 393 renal
[53] = test system: A498 renal
[54] = test system: T-47D breast
[55] = test system: LOX IMVI melanoma
[56] = test system: HCT-15 colon
[57] = test system: IGROV1 ovarian

Cc1ccc(C[As+](c2ccccc2)(c2ccccc2)c2ccccc2)cc1
GI50 [1]: 0.286 µM | TGI [1]: 1.48 µM | GI50 [2]: 0.621 µM | TGI [2]: 17.2 µM | GI50 [3]: 0.297 µM | TGI [3]: 11.6 µM | GI50 [4]: 0.645 µM | TGI [4]: 19.6 µM | GI50 [5]: 0.409 µM | TGI [5]: 10.4 µM | GI50 [6]: 0.599 µM | TGI [6]: 15.3 µM | GI50 [7]: 0.927 µM | TGI [7]: 18.5 µM | GI50 [8]: 1.08 µM | TGI [8]: 55 µM | GI50 [9]: 1.1 µM | TGI [9]: 10.3 µM | GI50 [10]: 0.887 µM | TGI [10]: 4.34 µM | GI50 [11]: 0.552 µM | TGI [11]: 6.34 µM | GI50 [12]: 12.4 µM | TGI [12]: 97.4 µM | GI50 [13]: 2.41 µM | TGI [13]: 13.6 µM | GI50 [14]: 0.412 µM | TGI [14]: 2.45 µM | GI50 [15]: 0.645 µM | TGI [15]: > 36.2 µM | GI50 [16]: 1.36 µM | TGI [16]: > 56.8 µM | GI50 [17]: 0.466 µM | TGI [17]: 21.9 µM | GI50 [18]: 3.15 µM | TGI [18]: > 46.4 µM | GI50 [19]: 1.5 µM | TGI [19]: 32.9 µM | GI50 [20]: 1.08 µM | TGI [20]: > 42.2 µM | GI50 [21]: 1.25 µM | TGI [21]: 12.1 µM | GI50 [22]: 0.392 µM | TGI [22]: 8.26 µM | GI50 [23]: 2.01 µM | TGI [23]: 20.5 µM | GI50 [24]: 8.85 µM | TGI [24]: 43.9 µM | GI50 [25]: 0.371 µM | TGI [25]: 12.6 µM | GI50 [26]: 0.588 µM | TGI [26]: 35.8 µM | GI50 [27]: 0.778 µM | TGI [27]: > 100 µM | GI50 [28]: 0.58 µM | TGI [28]: 15.9 µM | GI50 [29]: 0.797 µM | TGI [29]: 6.07 µM | GI50 [30]: 1.64 µM | TGI [30]: > 100 µM | GI50 [31]: 0.99 µM | TGI [31]: > 38.1 µM | GI50 [32]: 0.704 µM | TGI [32]: 10.8 µM | GI50 [33]: 0.218 µM | TGI [33]: 3.24 µM | GI50 [34]: 0.674 µM | TGI [34]: 8.36 µM | GI50 [35]: 1.71 µM | TGI [35]: 28.3 µM | GI50 [36]: 0.611 µM | TGI [36]: 13.9 µM | GI50 [37]: 1.74 µM | TGI [37]: > 87.2 µM | GI50 [38]: 0.385 µM | TGI [38]: 4.46 µM | GI50 [39]: 49.1 µM | TGI [39]: > 100 µM | GI50 [40]: 1.82 µM | TGI [40]: > 23.5 µM | GI50 [41]: 0.23 µM | TGI [41]: 0.719 µM | GI50 [42]: 0.279 µM | TGI [42]: 1.75 µM | GI50 [43]: 0.753 µM | TGI [43]: 4.41 µM | GI50 [44]: 0.649 µM | TGI [44]: 8.38 µM | GI50 [45]: 2.19 µM | TGI [45]: > 48.8 µM | GI50 [46]: 0.978 µM | TGI [46]: > 76.8 µM | GI50 [47]: 3.66 µM | TGI [47]: > 100 µM | GI50 [48]: 1.46 µM | TGI [48]: 19.6 µM | GI50 [49]: 0.158 µM | TGI [49]: 0.961 µM | GI50 [50]: 0.313 µM | TGI [50]: 11.5 µM | GI50 [51]: 1.02 µM | TGI [51]: 9.36 µM | GI50 [52]: 1.62 µM | TGI [52]: 11.4 µM | GI50 [53]: 0.581 µM | TGI [53]: 5.07 µM | GI50 [54]: 0.125 µM | TGI [54]: 10.3 µM | GI50 [55]: 1.41 µM | TGI [55]: 6.85 µM | GI50 [56]: 13 µM | TGI [56]: > 100 µM | GI50 [57]: 1.17 µM | TGI [57]: 25.1 µM
